# In patent US6423494B1, “DR6 and uses thereof” (Millennium Pharmaceuticals, Inc., priority 1999, dated 2002):
# Test system: colon cancer cell line SW-620
# Test: Drug sensitivity of colon cancer cell line SW-620 (NCI60 panel)
# Assay type: cell-based, human
# Conditions: SW-620 colon cancer cell line, in which DR6 does not appear to be expressed (Northern analysis)
# Description: In order to identify genes involved in drug resistance, the expression various genes in drug resistant cancer cells was measured. The drug resistant cancer cell lines used were all members of the NCI60 panel of drug resistant cell lines. The cell lines in this panel are resistant to one or more chemotherapeutic compounds.
row,Compound,sensitivity of the cell line to the drug
1,CC[C@@]1(O)C(=O)OCc2c1cc1n(c2=O)Cc2cc3c(CN(C)C)c(O)ccc3nc2-1 [topotecan],relatively sensitive
2,O=C(O)CCCc1ccc(N(CCCl)CCCl)cc1 [chlorambucil],relatively sensitive
3,COc1cc([C@@H]2c3cc4c(cc3[C@@H](O[C@@H]3O[C@@H]5CO[C@@H](C)O[C@H]5[C@H](O)[C@H]3O)[C@H]3COC(=O)[C@H]23)OCO4)cc(OC)c1O [etoposide],relatively sensitive
4,COc1cccc2c1C(=O)c1c(O)c3c(c(O)c1C2=O)C[C@@](O)(C(=O)CO)C[C@@H]3O[C@H]1C[C@H](N)[C@H](O)[C@H](C)O1 [doxorubicin],relatively sensitive
5,N.N.[Cl][Pt][Cl] [cisplatin],relatively sensitive
